Test results as given in US12528812B2 (Genentech, Inc., priority 2020, dated 2026).

Experiments:
[1] = system: IL-13-stimulated STAT6 phosphorylation in human lung bronchial epithelial BEAS-2B cell line; assay: P-STAT6 BEAS-2B + IL-13 cell assay; type: cell-based; settings: Homo sapiens, BEAS-2B, BEAS2B cells, IL13 stimulation; read-out: Cellular JAK1 PSTAT6 BEAS2B + IL13
Method: In order to study the effect of JAK1 inhibitors in a cell line that is relevant to the cell biology of human asthma, an IL-13-stimulated STAT6 phosphorylation assay in the human lung bronchial epithelial BEAS-2B cell line was developed.
BEAS-2B cells (ATCC′ CRL-9609™) were grown in Bronchial Epithelial Growth Medium (BEGM) (Lonza Catalog No. CC-3170; Walkersville, MD; or PromoCell Catalog No. C-21060; Heidelberg, Germany). Test compound stock solutions (0.5 mM in DMSO) were serially diluted 1:2 in DMSO to generate a 10-point concentration curve (at 500× test concentration), which was further diluted by a 50-fold dilution step in BEGM to generate a 10× concentration curve (in 2% DMSO). Cells were plated at 100,000 cells/well in 200 μL of BEGM in 96-well plates and incubated for 48 hours at 37° C. in a humidified incubator. Medium was aspirated from the cells and replaced with 70 μL of fresh BEGM. Diluted test compound (10 μL; or 2% DMSO in assay medium) was added to the cells, and the plates were incubated for 1 hour at 37° C. in a humidified incubator. Twenty μL of 250 ng/mL human recombinant IL-13 (Bio Techne Catalog No. 213-ILB) was then added to the cells and incubated for 15 minutes at 37° C. Medium was aspirated from the cells and 60 μL of ice-cold 1× cell lysis buffer (Cell Signaling Technologies; Catalog No. 9803S) containing 1 mM PMSF was added to the cells. Assay plates were incubated at −80° C. for at least 1 hour. P-STAT6 was measured by coating GAR plates (MSD; Catalog No. L45RA-1) with rabbit anti-human total STAT6 antibody (Cell Signaling Technologies; Catalog No. 9362S), incubating the cell lysates in the coated plates overnight at 4° C., and then detecting with mouse anti-phospho-STAT6 (Tyr641) Clone 16E12 antibody (Millipore; Catalog No. 05-590, custom labeled by MSD with SULFO-tag) using standard MSD plate processing, washing, and detection protocols. Plates were read on the MESO SECTOR 5600.
Data analysis was performed by subtracting negative control values from all wells and determining percent of control using the positive control values; the IC50 was determined with a four-parameter logistic fit model as shown in Equation 4.

[2] = biological target: T1, recombinant human JAK1 kinase domain protein (Residues 854-1154) (Homo sapiens, UniProt P23458); assay: JAK1 biochemical assay (LabChip mobility shift, Ki); settings: read-out: Biochem JAK1 Ki
T1 construct: human JAK1 kinase domain protein (Residues 854-1154); purchased Proteros Biostructures GmbH (Martinsried, Germany); host or cells: insect cells

[3] = biological target: Recombinant human JAK2 kinase domain protein (Residues 812-1132) (Homo sapiens, UniProt O60674); assay: JAK2 biochemical assay (LabChip mobility shift, Ki); settings: Biochem JAK2 Ki
Recombinant human JAK2 kinase domain protein (Residues 812-1132), sequence (O60674 812-1132): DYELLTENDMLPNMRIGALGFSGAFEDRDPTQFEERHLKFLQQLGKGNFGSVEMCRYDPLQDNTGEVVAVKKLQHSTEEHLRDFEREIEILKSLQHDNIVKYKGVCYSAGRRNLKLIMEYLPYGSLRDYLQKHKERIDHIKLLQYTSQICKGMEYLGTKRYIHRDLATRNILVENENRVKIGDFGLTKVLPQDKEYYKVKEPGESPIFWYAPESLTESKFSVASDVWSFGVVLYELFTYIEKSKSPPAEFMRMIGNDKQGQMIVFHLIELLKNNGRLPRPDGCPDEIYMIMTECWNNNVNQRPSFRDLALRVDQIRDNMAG
Method: The in vitro biochemical assays quantify JAK-catalyzed phosphorylation of a synthetic peptide, as detected using a LabChip® EZ Reader II microfluidic mobility shift instrument (PerkinElmer; Waltham, MA). […] Y-1B is fluorescently labeled on the N-terminus with 5-FAM (5-carboxyfluorescein) and contains a single tyrosine residue (Y) that can be phosphorylated by JAK activity. The substrate peptide stock is prepared in DMSO at 5 mM. […] In each titration experiment, test compound was tested in duplicate at each of the twelve concentrations. Blank reactions contained ATP, peptide, and DMSO, but no JAK or test compound, whereas uninhibited control reactions contained ATP, peptide, JAK, and DMSO, but no test compound.
Peptide plus ATP mixture (24 μL) was added to 1 μL of test compound in DMSO (or DMSO alone). The reactions were initiated by adding 25 μL of JAK enzyme to the inhibitor/peptide/ATP mixture before thoroughly mixing the resultant solution. Reactions were incubated at room temperature (22° C.-23° C.) in a final volume of 50 μL per well in 384-well plates. After a 30-minute incubation, the reactions were stopped by adding 25 μL of 150 mM ethylenediaminetetraacetic acid in 100 mM HEPES buffer (pH 7.2) containing 0.015% Brij 35 to each well.
In each reaction, the residual Y-1B substrate and the phospho-peptide product generated were separated using the EZ Reader II instrument. Electrophoretic separation of molecules of product from molecules of substrate was achieved using downstream and upstream voltages of −500 and −2600 V, respectively, at an operating pressure of −1.3 psi.
The extent (or percent) of conversion of substrate to product was calculated from the corresponding peak heights in the electropherogram using HTS Well Analyzer software, Version 5.2 (PerkinElmer), and the following equation (Equation 1): conversion=[P÷(S+P)]×100 Equation 1% where S and P represent the peak heights of the substrate and product, respectively. After any baseline signal from blank wells containing no JAK was subtracted from the signal of all test wells, the % conversion data were converted to fractional activity as shown in Equation 2, where vi and vo are the % conversion in the presence and absence of test compound, respectively.

T1 sequence (P23458 854-1154): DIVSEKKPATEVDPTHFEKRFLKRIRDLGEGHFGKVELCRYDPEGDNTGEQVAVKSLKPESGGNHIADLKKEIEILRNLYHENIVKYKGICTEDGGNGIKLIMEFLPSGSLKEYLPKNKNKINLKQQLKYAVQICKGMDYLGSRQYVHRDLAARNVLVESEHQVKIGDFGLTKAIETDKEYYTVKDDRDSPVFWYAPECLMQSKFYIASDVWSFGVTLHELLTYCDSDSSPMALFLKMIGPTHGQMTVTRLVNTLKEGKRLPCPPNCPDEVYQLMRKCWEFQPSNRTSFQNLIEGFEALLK

| SMILES | IC50 [1] | Ki [2] | Ki [3] |
| --- | --- | --- | --- |
| CN(C)C(=O)CNCc1cccc(Oc2ccc(OC(F)F)c(-c3nn(C)cc3NC(=O)c3cnn4cccnc34)c2)c1 [Example 55, N-[3-[2-(difluoromethoxy)-5-[3-[[[2-(dimethylamino)-2-oxo-ethyl]amino]methyl]phenoxy]phenyl]-1-methyl-pyrazol-4-yl]pyrazolo[1,5-a]pyrimidine-3-carboxamide] | 48 nM | 0.9 nM | 0.58 nM |
| Cn1cc(NC(=O)c2cnn3cccnc23)c(-c2cc(Oc3cc(C(F)(F)F)cc(C4(O)CNC4)c3)ccc2OC(F)F)n1 [Example 105, N-[3-[2-(difluoromethoxy)-5-[3-(3-hydroxyazetidin-3-yl)-5-(trifluoromethyl)phenoxy]phenyl]-1-methyl-pyrazol-4-yl]pyrazolo[1,5-a]pyrimidine-3-carboxamide] | 81 nM | 0.49 nM | 0.43 nM |
| NCc1ccc(Oc2ccc(OC(F)F)c(-c3n[nH]cc3NC(=O)c3cnn4cccnc34)c2)cc1 [Example 3, N-[3-[5-[4-(aminomethyl)phenoxy]-2-(difluoromethoxy)phenyl]-1H-pyrazol-4-yl]pyrazolo[1,5-a]pyrimidine-3-carboxamide] | 15 nM | 3.3 nM | 0.89 nM |
| NCc1ccccc1Oc1ccc(OC(F)F)c(-c2n[nH]cc2NC(=O)c2cnn3cccnc23)c1 [Example 7, N-[3-[5-[2-(aminomethyl)phenoxy]-2-(difluoromethoxy)phenyl]-1H-pyrazol-4-yl]pyrazolo[1,5-a]pyrimidine-3-carboxamide] | 360 nM | 1.5 nM | 1.9 nM |
| Cc1ccc(Oc2ccc(OC(F)F)c(-c3nn(C)cc3NC(=O)c3cnn4cccnc34)c2)cc1C(=O)N1CCN(C)CC1 [Example 50, N-[3-[2-(difluoromethoxy)-5-[4-methyl-3-(4-methylpiperazine-1-carbonyl)phenoxy]phenyl]-1-methyl-pyrazol-4-yl]pyrazolo[1,5-a]pyrimidine-3-carboxamide] | 35 nM | 0.64 nM | 0.46 nM |
| Cn1cc(NC(=O)c2cnn3cccnc23)c(-c2cc(Oc3cccc(CN(CCO)CCO)c3)ccc2OC(F)F)n1 [Example 45, N-[3-[5-[3-[[bis(2-hydroxyethyl)amino]methyl]phenoxy]-2-(difluoromethoxy)phenyl]-1-methyl-pyrazol-4-yl]pyrazolo[1,5-a]pyrimidine-3-carboxamide] | 34 nM | 0.58 nM | 0.5 nM |
| Cn1cc(NC(=O)c2cnn3cccnc23)c(-c2cc(Oc3cnn(C4CCNCC4O)c3)ccc2OC(F)F)n1 (stereo not drawn) [Example 182, N-[3-[2-(difluoromethoxy)-5-[1-(3-hydroxy-4-piperidyl)pyrazol-4-yl]oxy-phenyl]-1-methyl-pyrazol-4-yl]pyrazolo[1,5-a]pyrimidine-3-carboxamide] | 160 nM | 0.65 nM | 0.43 nM |
| NCc1cccc(Oc2ccc(OC(F)F)c(-c3n[nH]cc3NC(=O)c3cnn4cccnc34)c2)c1 [Example 6, N-[3-[5-[3-(aminomethyl)phenoxy]-2-(difluoromethoxy)phenyl]-1H-pyrazol-4-yl]pyrazolo[1,5-a]pyrimidine-3-carboxamide] | 11 nM | 0.23 nM | 0.2 nM |
| Cc1cc(Oc2ccc(OC(F)F)c(-c3nn(C)cc3NC(=O)c3cnn4cccnc34)c2)cc(C2(O)CN(C)C2)c1 [Example 102, N-[3-[2-(difluoromethoxy)-5-[3-(3-hydroxy-1-methyl-azetidin-3-yl)-5-methyl-phenoxy]phenyl]-1-methyl-pyrazol-4-yl]pyrazolo[1,5-a]pyrimidine-3-carboxamide] | 24 nM | 0.44 nM | 0.43 nM |
| Cn1cc(NC(=O)c2cnn3cccnc23)c(-c2cc(Oc3ccc4c(c3)CCNC4)ccc2OC(F)F)n1 [Example 63, N-[3-[2-(difluoromethoxy)-5-(1,2,3,4-tetrahydroisoquinolin-6-yloxy)phenyl]-1-methyl-pyrazol-4-yl]pyrazolo[1,5-a]pyrimidine-3-carboxamide] | 47 nM | 1.7 nM | 0.42 nM |
| CN(C)C(=O)Cc1ccc(Oc2ccc(OC(F)F)c(-c3nn(C)cc3NC(=O)c3cnn4cccnc34)c2)cc1 [Example 129, N-[3-[2-(difluoromethoxy)-5-[4-[2-(dimethylamino)-2-oxo-ethyl]phenoxy]phenyl]-1-methyl-pyrazol-4-yl]pyrazolo[1,5-a]pyrimidine-3-carboxamide] | 14 nM | 0.27 nM | 0.15 nM |
| CN1CCCC(O)(Cn2cc(Oc3ccc(OC(F)F)c(-c4nn(C)cc4NC(=O)c4cnn5cccnc45)c3)cn2)C1 (stereo not drawn) [Example 193, N-[3-[2-(difluoromethoxy)-5-[1-[(3-hydroxy-l-methyl-3-piperidyl)methyl]pyrazol-4-yl]oxy-phenyl]-1-methyl-pyrazol-4-yl]pyrazolo[1,5-a]pyrimidine-3-carboxamide] | 58 nM | 1.6 nM | 2.3 nM |
| O=C(Nc1cn(CCN[C@H]2C[C@H](O)C2)nc1-c1cc(Oc2ccccc2)ccc1OC(F)F)c1cnn2cccnc12 [Example 43, N-[3-[2-(difluoromethoxy)-5-phenoxy-phenyl]-1-[2-[(3-hydroxycyclobutyl)amino]ethyl]pyrazol-4-yl]pyrazolo[1,5-a]pyrimidine-3-carboxamide] | 24 nM | 0.3 nM | 0.31 nM |
| CN1CC(O)(c2cc(Oc3ccc(OC(F)F)c(-c4nn(C)cc4NC(=O)c4cnn5cccnc45)c3)ccc2F)C1 [Example 104, N-[3-[2-(difluoromethoxy)-5-[4-fluoro-3-(3-hydroxy-1-methyl-azetidin-3-yl)phenoxy]phenyl]-1-methyl-pyrazol-4-yl]pyrazolo[1,5-a]pyrimidine-3-carboxamide] | 45 nM | 0.73 nM | 0.75 nM |
| CC(N)c1cccc(Oc2ccc(OC(F)F)c(-c3n[nH]cc3NC(=O)c3cnn4cccnc34)c2)c1 (stereo not drawn) [Example 14, N-[3-[5-[3-(1-aminoethyl)phenoxy]-2-(difluoromethoxy)phenyl]-1H-pyrazol-4-yl]pyrazolo[1,5-a]pyrimidine-3-carboxamide] | 26 nM | 0.25 nM | 0.38 nM |
| Cc1ccc(Oc2ccc(OC(F)F)c(-c3nn(CC4CCCN4C)cc3NC(=O)c3cnn4cccnc34)c2)cc1C(=O)N(C)C (racemic) [Example 51, N-[3-[2-(difluoromethoxy)-5-[3-(dimethylcarbamoyl)-4-methyl-phenoxy]phenyl]-1-[[rac-(2R)-1-methylpyrrolidin-2-yl]methyl]pyrazol-4-yl]pyrazolo[1,5-a]pyrimidine-3-carboxamide] | 45 nM | 1.3 nM | 1.8 nM |
| CN(C)C(=O)c1cncc(Oc2ccc(OC(F)F)c(-c3nn(C)cc3NC(=O)c3cnn4cccnc34)c2)c1 [Example 159, N-[3-[2-(difluoromethoxy)-5-[[5-(dimethylcarbamoyl)-3-pyridyl]oxy]phenyl]-1-methyl-pyrazol-4-yl]pyrazolo[1,5-a]pyrimidine-3-carboxamide] | 43 nM | 0.54 nM | 0.37 nM |
| Cc1nn(CCO)cc1Oc1ccc(OC(F)F)c(-c2nn(C)cc2NC(=O)c2cnn3cccnc23)c1 [Example 154, N-[3-[2-(difluoromethoxy)-5-[1-(2-hydroxyethyl)-3-methyl-pyrazol-4-yl]oxy-phenyl]-1-methyl-pyrazol-4-yl]pyrazolo[1,5-a]pyrimidine-3-carboxamide] | 37 nM | 0.57 nM | 0.29 nM |
| CN(CC(=O)N(C)C)Cc1cccc(Oc2ccc(OC(F)F)c(-c3nn(C)cc3NC(=O)c3cnn4cccnc34)c2)c1 [Example 60] | 35 nM | 0.81 nM | 0.75 nM |
| Cn1cc(NC(=O)c2cnn3cccnc23)c(-c2cc(Oc3cnn([C@H]4C[C@H](N)C4)c3)ccc2OC(F)F)n1 [Example 188, N-[3-[5-[1-(3-aminocyclobutyl)pyrazol-4-yl]oxy-2-(difluoromethoxy)phenyl]-1-methyl-pyrazol-4-yl]pyrazolo[1,5-a]pyrimidine-3-carboxamide] | 150 nM | 0.91 nM | 0.77 nM |
